Experimental data published in patent US20240360145A1, “PYRIMIDINE-2,4-DIAMINE DERIVATIVES AS WELL AS PREPARATION METHOD THEREFOR AND USE THEREOF” (LISEN THERAPEUTICS, INC., priority 2022, published 2024).

What was measured:
[1] = tested on: various cancer cell lines; experiment: Cell viability IC50 (CellTiter-Glo), summary over various cancer cell lines; format: cell-based
Experimental: (§1) The cancer cell lines were cultured to the logarithmic growth phase according to conventional culture methods, and the cells were inoculated into a 384-well plate at a density of 2,000 cells/well in a volume of 40 μl/well. The concentrations of added compounds were: […], 1.67 μM, 0.56 μM, 0.19 μM, 0.062 μM, 0.021 μM, 0.0069 μM, 0.0023 μM, 0.00076 μM, and 0 μM. After 72 hours, cell viability was detected using the CellTiter-Glo™ Detection Kit.

[2] = tested on: HCT116 (colon cancer); experiment: Cell viability IC50 (CellTiter-Glo), HCT116; format: cell-based; details: Homo sapiens, HCT-116, HCT116, 72 hours
Experimental: as §1

[3] = tested on: NCI-H446 cells; experiment: Cell viability IC50 (CCK-8), small cell lung cancer cell line H446; format: cell-based; details: Homo sapiens, NCI-H446; H446, CCK-8
Experimental: (§2) Small cell lung cancer cell lines DMS114, NCI-H1688, NCI-H82, NCI-H146, and NCI-H446 cells were cultured in RPMI-1640 medium containing 10% fetal bovine serum and 1% penicillin-streptomycin. All the cells were cultured in a constant temperature incubator containing 5% CO2 at 37° C.
(§3) Small cell lung cancer is a highly heterogeneous malignant tumor, and its clinical treatment is mainly based on traditional chemotherapy (mainly platinum medicaments and etoposide). In order to study the anti-tumor activity of the compounds of the present disclosure in small cell lung cancer, the CCK-8 method was used to investigate the cell viability IC50 of compound 8 for five small cell lung cancer cell lines.

[4] = tested on: MDA-MB-231 (breast cancer); experiment: Cell viability IC50 (CellTiter-Glo), MDA-MB-231; format: cell-based; details: Homo sapiens, MDA-MB-231, 72 hours
Experimental: as §1

[5] = tested on: Cal-62 (thyroid cancer); experiment: Cell viability IC50 (CellTiter-Glo), Cal-62; format: cell-based; details: Homo sapiens, Cal-62, 72 hours
Experimental: as §1

[6] = tested on: PE039 primary cells; experiment: Cell viability IC50 (CCK-8), primary cells PE039 from small cell lung cancer pleural effusion; format: cell-based; details: PE039, CCK-8
Experimental: (§4) (1) The pleural effusion was poured into a 15 mL or 50 mL of sterilized centrifuge tube for centrifugation. Centrifugation conditions: 800 to 1000 rpm, 5 min.
(§5) (2) The precipitate was resuspended and washed for 2 to 3 times with PBS.
(§6) (3) The cell precipitate was resuspended with complete culture medium (α-MEM medium containing 10% fetal bovine serum and 2% penicillin-streptomycin), and the flocculent matter in the pleural effusion was removed using a sterilized cell sieve.
(§7) (4) The red blood cells in the pleural effusion were removed with lymphocyte separation fluid, and the tumor cells and lymphocyte components were collected. The number of tumor cells was observed under a microscope, and the cells were inoculated.
(§8) (5) After 24 hours, the supernatant was discarded, and fresh culture medium was added for further culture.
(§9) (6) The cell growth status was observed, and it was determined based on the cell status whether the medium was required to be continuously changed to remove blood cells. When the cells grew to a density of 80% to 90%, the cells were preserved.
(§10) (1) Primary cells from lung cancer pleural effusion within 5 generations were cultured to the logarithmic growth phase. […] After centrifugation at room temperature, the supernatant was discarded, and the cell precipitate was resuspended with fresh complete culture medium. After counting, the cells were placed at room temperature for later use. The cells were inoculated into a 384-well plate at a density of 2000 cells/well with a volume of 40 μl/well. The wells at the outermost circle of the plate were not inoculated with cells, and instead, added with sterile water to reduce evaporation of the culture medium.
(§11) (2) After overnight culture of the cells, the medium was discarded, and a fresh medium containing different concentrations of compounds was added at 200 μl/well. The dilution method of the compound was as follows: first the compound with the highest concentration of 10 μM was prepared, and then the compound was diluted for 3 times in sequence. […] At the same time, a blank control group was set up, in which only an equal volume of culture medium was added without adding cells. Five replicate wells were set up for each group. The cells were placed in the incubator for further culture.
(§12) (3) After 72 hours, 8 μl of CCK-8 solution, which was double-diluted with 10 mM PBS, was added to each well, and the cells were shaken and placed in an incubator at 37° C. for further culture for 2 hours.
(4) The light absorbance value at 450 nm was read using a microplate reader, and the IC50 was calculated according to the absorbance value. The calculation method was the same as above. […]

[7] = tested on: ASH-3 (thyroid cancer); experiment: Cell viability IC50 (CellTiter-Glo), ASH-3; format: cell-based; details: ASH-3, 72 hours
Experimental: as §1

[8] = tested on: PE062 primary cells; experiment: Cell viability IC50 (CCK-8), primary cells PE062 from small cell lung cancer pleural effusion; format: cell-based; details: PE062, CCK-8
Experimental: as §4, §5, §6, §7, §8, §9, §10, §11, §12
(4) The light absorbance value at 450 nm was read using a microplate reader, and the IC50 was calculated according to the absorbance value. The calculation method was the same as above.
(1) Sample information: PE039, PE052, and PE062 were all primary cell samples from pleural effusion of patients with small cell lung cancer, and LT015 was a primary cell sample from bronchoscopic biopsy of a patient with small cell lung cancer.
(2) CCK-8 detection was used to detect the IC50 values of different medicaments (compounds).

[9] = tested on: NCI-H1688 cells; experiment: Cell viability IC50 (CCK-8), small cell lung cancer cell line H1688; format: cell-based; details: NCI-H1688; H1688, CCK-8
Experimental: as §2, §3

[10] = tested on: NCI-H146 cells; experiment: Cell viability IC50 (CCK-8), small cell lung cancer cell line H146; format: cell-based; details: Homo sapiens, NCI-H146; H146, CCK-8
Experimental: as §2, §3

[11] = tested on: NCI-H1650 cells; experiment: Cell viability IC50 (MTT), Gefitinib- and Osimertinib-resistant NCI-H1650 cells; details: Homo sapiens, NCI-H1650, 72 h, read-out: cell viability IC50
Experimental: 1% sodium pyruvate was additionally added when culturing NCI-H1975 cells. All the cells were cultured in a constant temperature incubator containing 5% CO2 at 37° C.
(1) The cells were cultured to the logarithmic growth phase. […] After centrifugation at room temperature, the supernatant was discarded, and the cell precipitate was resuspended with fresh complete medium. After counting, the cells were placed at room temperature for later use.
(2) The cells were inoculated into a 96-well plate at a density of 4,000 cells/well with a volume of 100 μl/well. The wells at the outermost circle of the plate were not inoculated with cells, and instead, added with sterile water to reduce evaporation of the culture medium.
(3) After overnight culture of the cells, the medium was discarded, and a fresh medium containing different concentrations of compounds was added at 200 μl/well. The dilution method of the compound was as follows: first the compound with the highest concentration of 10 μM was prepared, and then the compound was diluted for 3 times in sequence. […] At the same time, a blank control group was set up, in which only an equal volume of culture medium was added without adding cells. Six replicate wells were set up for each group. The cells were placed in the incubator for further culture.
(4) After 72 hours, 20 μl of MTT solution (5 mg/ml) sterilized by filtration through a 0.22 m filter membrane was added to each well, and the cells were cultured in an incubator at 37° C. for another 4 hours.
(6) IC50 of the compounds for different cells was calculated based on the light absorption value of each group. Specifically, the absorbance value under treatment with different concentrations of compounds was first subtracted from the absorbance value of the blank well, and then the absorbance value of the 0 μM group was taken as 100% to calculate the cell survival rate after treatment with different concentrations of compounds. That is, survival rate=((ODexperimental well−ODblank control)/(ODnegative control−ODblank control))×100%. IC50 values were calculated based on the survival rate and concentration of the compound.

Work on `CN1CC2CCC(C1)N2Cc1ccc(Nc2ncc(Cl)c(Nc3ccccc3S(=O)(=O)N(C)C)n2)cc1` [Compound 8, 2-((5-chloro-2-((4-((3-methyl-3,8-diazabicyclo[3.2.1]octan-8-yl)methyl)phenyl)amino)pyrimidin-4-yl)amino)-N,N-dimethylbenzenesulfonamide] yielded an IC50 ([1]; colon cancer, liver cancer, cervical cancer, ovarian cancer, and esophageal cancer) of less than 200 nM, an IC50 ([1]; thyroid cancer, breast cancer, bladder cancer, glioma, pancreatic cancer, melanoma, and gastric cancer) of less than 100 nM and an IC50 [2] of 9 nM. For the same compound, the IC50 [3] was 7.58 nM, the IC50 [4] was 49.9 nM and the IC50 [5] was 21.9 nM. The IC50 [6] was 51.5 nM, the IC50 [7] was 44 nM and the IC50 [8] was 2.7 nM. The IC50 [9] was 5.01 nM, the IC50 [10] was 9.92 nM and the IC50 [11] was 83.6 nM.
